From article PMC7549094 (Journal of Medicinal Chemistry, 2020)
Converted amounts (≈) assume the structure as drawn. Like-named read-outs stand apart in the source and are kept apart here.

Tests used:
rVMAT2 uptake = rVMAT2 uptake (Rattus norvegicus, UniProt Q01827); assay: receptor profile (Table S4); type: biochemical
hr OpM = hr OpM (Homo sapiens, UniProt P35372); assay: receptor profile (Table S4); type: binding
hr D2 = hr D2 (Homo sapiens, UniProt P14416); assay: receptor profile (Table S4); type: binding
Chain of hr D2 (P14416 whole entry): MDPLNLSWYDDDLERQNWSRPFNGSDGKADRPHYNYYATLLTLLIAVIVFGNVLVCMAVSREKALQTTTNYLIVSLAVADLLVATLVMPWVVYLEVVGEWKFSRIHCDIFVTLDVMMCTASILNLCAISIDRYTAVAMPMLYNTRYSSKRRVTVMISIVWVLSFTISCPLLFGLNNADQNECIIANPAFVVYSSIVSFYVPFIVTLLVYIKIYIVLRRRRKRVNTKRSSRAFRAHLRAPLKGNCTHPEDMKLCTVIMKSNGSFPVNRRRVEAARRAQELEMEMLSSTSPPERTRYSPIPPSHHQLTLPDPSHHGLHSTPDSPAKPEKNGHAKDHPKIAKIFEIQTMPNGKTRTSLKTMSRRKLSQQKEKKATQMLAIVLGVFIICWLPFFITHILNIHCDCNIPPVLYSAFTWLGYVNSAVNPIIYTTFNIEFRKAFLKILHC

hr Al1A ag = target: T1, hr Al1A ag (Homo sapiens, UniProt P35348); assay: receptor profile (Table S4); type: biochemical
T1 sequence (P35348 1-466): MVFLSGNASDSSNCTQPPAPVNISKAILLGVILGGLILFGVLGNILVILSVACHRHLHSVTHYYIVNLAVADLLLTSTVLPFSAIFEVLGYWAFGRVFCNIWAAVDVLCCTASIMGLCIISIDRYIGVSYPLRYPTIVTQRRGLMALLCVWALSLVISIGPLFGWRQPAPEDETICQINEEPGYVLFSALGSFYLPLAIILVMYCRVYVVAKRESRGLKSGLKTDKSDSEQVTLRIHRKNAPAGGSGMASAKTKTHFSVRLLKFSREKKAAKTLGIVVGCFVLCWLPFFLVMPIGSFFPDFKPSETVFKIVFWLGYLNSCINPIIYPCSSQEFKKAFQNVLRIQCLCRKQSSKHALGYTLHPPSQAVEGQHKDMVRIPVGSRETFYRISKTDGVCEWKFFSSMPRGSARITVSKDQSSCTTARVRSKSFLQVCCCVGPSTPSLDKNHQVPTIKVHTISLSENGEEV

[1] = pharmacokinetics in cynomolgus monkey; type: in vivo; conditions: male cynomolgus monkey
Protocol: In Vivo Intravenous PK Study in Non-human Primates. The IV PK study in non-human primates was carried out at Covance research facility in Greenfield, Indiana. The research facility is accredited by AAALAC (Association for Assessment and Accreditation of Laboratory Animal Care). The male Cynomolgus monkeys were approximately 4.5 years of age and weighed 4.2 to 5.0 kg. 1 was administered […]
75% polyethylene glycol (PEG300) as described in the earlier section. Doses were administered once by intravenous injection via the saphenous vein at a dose of 0.3 mg/kg with a dosing volume of 0.1 ml/kg.
Clinical observations and food consumption determinations were performed on all animals. Blood samples for PK analysis were collected from all animals via the femoral vein approximately 0.083, 0.25, […]
In Vivo Oral PK Study in Non-human Primates. The PO PK study in non-human primates was conducted at a Novartis facility using Non-naïve male Cynomolgus monkeys weighing 3.8 to 4.0 kg. The monkeys were fasted overnight and fed 2 hours post-dose. 1 was formulated in a suspension of 0.5% […]
gavaged with 5 mL/kg of the suspension for a total dose of 10 mg/kg. The gavage tubing was flushed with 5 mL of water to ensure the gavage tubing was cleared of the formulation. Blood samples for PK analysis were collected from all animals via the saphenous veins approximately 0.25, 0.5, 1, 2, 4, 7, 24, 48, and 72 hours post-dose.

hr PDE4D = hr PDE4D (Homo sapiens, UniProt Q08499); assay: receptor profile (Table S4); type: biochemical
Chain of hr PDE4D (Q08499 whole entry): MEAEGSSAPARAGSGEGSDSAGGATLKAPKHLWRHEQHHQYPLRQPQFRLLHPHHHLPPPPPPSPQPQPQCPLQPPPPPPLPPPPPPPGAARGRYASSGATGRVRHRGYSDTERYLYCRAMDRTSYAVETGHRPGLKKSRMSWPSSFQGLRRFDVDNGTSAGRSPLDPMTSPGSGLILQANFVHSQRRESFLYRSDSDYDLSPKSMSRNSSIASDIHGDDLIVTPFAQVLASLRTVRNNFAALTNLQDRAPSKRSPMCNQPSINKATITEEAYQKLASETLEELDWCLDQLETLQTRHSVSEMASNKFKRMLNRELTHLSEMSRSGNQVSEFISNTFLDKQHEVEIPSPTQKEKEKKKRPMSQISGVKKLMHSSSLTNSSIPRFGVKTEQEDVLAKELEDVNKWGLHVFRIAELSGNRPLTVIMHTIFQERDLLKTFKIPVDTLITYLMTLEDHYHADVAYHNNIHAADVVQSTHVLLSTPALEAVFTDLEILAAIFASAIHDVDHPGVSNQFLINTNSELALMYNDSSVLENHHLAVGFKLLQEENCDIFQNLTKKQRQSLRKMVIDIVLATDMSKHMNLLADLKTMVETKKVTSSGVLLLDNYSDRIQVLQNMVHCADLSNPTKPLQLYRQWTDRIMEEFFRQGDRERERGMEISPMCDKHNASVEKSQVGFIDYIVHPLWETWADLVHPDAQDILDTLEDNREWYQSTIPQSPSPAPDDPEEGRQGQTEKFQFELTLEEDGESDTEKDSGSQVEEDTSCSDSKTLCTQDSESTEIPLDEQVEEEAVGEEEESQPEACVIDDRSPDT

[2] = high-throughput solubility pH 6.8; type: physicochemical; conditions: high-throughput assay format, read-out: HT sol. pH 6.8
h AdT = target: T2, h AdT (Homo sapiens, UniProt Q99808); assay: receptor profile (Table S4); type: binding
T2 sequence (Q99808 2-456 limits assumed): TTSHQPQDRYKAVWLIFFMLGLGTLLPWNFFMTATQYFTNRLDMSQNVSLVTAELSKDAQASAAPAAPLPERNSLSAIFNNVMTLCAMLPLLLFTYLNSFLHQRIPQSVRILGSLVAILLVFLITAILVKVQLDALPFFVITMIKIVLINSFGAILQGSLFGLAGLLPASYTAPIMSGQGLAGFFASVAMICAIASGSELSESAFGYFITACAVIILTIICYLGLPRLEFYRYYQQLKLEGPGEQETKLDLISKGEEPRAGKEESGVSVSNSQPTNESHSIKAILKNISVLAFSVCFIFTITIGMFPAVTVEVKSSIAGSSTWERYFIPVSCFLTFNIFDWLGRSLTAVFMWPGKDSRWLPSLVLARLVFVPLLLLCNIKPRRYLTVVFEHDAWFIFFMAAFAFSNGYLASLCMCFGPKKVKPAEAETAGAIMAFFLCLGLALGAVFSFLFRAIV

hr Beta2 ag = hr Beta2 ag (Homo sapiens, UniProt P07550); assay: receptor profile (Table S4); type: biochemical
Chain of hr Beta2 ag (P07550 whole entry): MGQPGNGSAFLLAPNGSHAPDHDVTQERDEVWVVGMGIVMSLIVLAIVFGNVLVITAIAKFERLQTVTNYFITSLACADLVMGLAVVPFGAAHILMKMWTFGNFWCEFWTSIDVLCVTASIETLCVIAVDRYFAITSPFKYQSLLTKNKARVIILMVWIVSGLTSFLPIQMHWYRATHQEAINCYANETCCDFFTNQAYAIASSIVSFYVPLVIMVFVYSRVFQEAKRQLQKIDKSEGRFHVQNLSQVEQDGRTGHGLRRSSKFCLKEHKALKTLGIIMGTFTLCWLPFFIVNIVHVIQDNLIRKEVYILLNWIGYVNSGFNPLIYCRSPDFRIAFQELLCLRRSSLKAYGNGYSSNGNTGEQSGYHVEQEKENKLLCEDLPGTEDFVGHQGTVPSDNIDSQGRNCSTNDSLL

hr Ad2A = hr Ad2A (Homo sapiens, UniProt P29274); assay: receptor profile (Table S4); type: binding
Chain of hr Ad2A (P29274 whole entry): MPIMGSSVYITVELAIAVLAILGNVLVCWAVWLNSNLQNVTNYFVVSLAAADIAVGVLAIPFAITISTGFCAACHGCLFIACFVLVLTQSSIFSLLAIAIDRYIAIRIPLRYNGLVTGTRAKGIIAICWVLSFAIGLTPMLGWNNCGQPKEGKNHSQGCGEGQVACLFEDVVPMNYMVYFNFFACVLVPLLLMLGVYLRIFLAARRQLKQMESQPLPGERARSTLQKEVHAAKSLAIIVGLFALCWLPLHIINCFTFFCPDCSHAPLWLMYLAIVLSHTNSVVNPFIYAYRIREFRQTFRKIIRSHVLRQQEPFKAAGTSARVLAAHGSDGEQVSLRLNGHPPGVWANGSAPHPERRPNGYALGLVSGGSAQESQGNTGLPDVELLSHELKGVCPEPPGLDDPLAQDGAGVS

hr OpD = hr OpD (Homo sapiens, UniProt P41143); assay: receptor profile (Table S4); type: binding
Chain of hr OpD (P41143 whole entry): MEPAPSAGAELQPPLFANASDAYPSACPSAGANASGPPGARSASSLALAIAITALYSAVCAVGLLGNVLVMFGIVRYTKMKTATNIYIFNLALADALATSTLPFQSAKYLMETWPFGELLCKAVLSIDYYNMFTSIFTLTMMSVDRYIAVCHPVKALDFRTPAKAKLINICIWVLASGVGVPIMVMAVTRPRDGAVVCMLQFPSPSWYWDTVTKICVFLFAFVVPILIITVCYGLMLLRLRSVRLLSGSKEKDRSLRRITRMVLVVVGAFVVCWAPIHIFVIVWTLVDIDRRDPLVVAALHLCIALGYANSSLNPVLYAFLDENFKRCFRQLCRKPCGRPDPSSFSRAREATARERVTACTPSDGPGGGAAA

hr Cav1.2 = hr Cav1.2 (Homo sapiens, UniProt Q13936); assay: receptor profile (Table S4); conditions: hr Cav1.2
Cav1.2 = Cav1.2 (Homo sapiens, UniProt Q13936); assay: receptor profile (Table S4); conditions: human
hr D1 antag = hr D1 antag (Homo sapiens, UniProt P21728); assay: receptor profile (Table S4); type: biochemical
Chain of hr D1 antag (P21728 whole entry): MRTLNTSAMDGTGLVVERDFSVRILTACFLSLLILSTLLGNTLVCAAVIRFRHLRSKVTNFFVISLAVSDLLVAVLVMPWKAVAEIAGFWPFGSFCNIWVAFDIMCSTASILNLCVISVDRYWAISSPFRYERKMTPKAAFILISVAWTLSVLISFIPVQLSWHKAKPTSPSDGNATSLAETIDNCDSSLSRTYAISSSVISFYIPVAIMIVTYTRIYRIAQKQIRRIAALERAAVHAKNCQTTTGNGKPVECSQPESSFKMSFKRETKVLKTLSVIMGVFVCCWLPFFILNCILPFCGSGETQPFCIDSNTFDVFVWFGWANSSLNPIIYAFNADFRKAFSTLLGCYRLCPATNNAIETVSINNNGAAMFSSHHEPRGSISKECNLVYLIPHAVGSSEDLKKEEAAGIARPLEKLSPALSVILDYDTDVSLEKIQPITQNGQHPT

[3] = mouse plasma protein binding; type: in vitro ADME
[4] = male beagle dog, 1.0 mg/kg PO, dose-normalized

Chain of rVMAT2 uptake (Q01827 whole entry): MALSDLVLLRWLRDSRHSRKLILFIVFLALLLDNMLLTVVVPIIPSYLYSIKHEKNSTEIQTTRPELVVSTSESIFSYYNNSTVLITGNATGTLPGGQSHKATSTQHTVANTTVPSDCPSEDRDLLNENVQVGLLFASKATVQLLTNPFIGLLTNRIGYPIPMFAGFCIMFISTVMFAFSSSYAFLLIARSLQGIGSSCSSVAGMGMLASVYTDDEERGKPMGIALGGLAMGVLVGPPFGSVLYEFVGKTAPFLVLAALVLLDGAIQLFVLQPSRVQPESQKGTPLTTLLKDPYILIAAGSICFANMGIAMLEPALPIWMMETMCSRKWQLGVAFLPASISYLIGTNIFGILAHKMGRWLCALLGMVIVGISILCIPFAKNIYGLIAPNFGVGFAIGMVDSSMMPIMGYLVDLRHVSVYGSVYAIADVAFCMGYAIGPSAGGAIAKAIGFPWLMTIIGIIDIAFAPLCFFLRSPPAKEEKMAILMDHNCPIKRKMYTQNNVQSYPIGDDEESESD
Chain of hr OpM (P35372 whole entry): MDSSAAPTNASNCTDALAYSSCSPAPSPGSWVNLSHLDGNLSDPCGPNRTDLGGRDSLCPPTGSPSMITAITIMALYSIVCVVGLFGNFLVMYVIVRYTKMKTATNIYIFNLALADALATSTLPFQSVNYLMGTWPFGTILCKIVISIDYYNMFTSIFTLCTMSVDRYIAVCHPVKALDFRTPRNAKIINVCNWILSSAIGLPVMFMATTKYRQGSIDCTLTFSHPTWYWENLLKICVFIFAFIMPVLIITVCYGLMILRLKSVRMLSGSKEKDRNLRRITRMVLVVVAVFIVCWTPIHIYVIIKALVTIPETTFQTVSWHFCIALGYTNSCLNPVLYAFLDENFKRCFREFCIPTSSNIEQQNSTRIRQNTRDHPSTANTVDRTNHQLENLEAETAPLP

SMILES: Cc1nc(C)c(C(=O)Nc2ccc(F)c(-c3nc4ncc(-c5ncccc5C)cn4n3)c2)o1 [compound 1, N-(4-Fluoro-3-(6-(3-methylpyridin-2-yl)-[1,2,4]triazolo[1,5-a]pyrimidin-2-yl)phenyl)-2,4-dimethyloxazole-5-carboxamide]
- EC50/IC50 (rVMAT2 uptake; rVMAT2 uptake): 3.9 µM
- inhibition at 10 µM (rVMAT2 uptake; read-out: % inh/act @ 10 µM): 64%
- inhibition at 30 µM (rVMAT2 uptake; read-out: % inh/act @ 30 µM): 78%
- inhibition at 10 µM (rVMAT2 uptake; read-out: VMAT2 inhibition): 61%
- CL as % of hepatic blood flow (dog, IV, fumarate salt): 37 % of hepatic blood flow
- DN AUC PO [4]: 1.5 µM·h
- DN Cmax PO [4]: 300 nM
- EC50/IC50 (hr OpM; hr OpM): > 30 µM
- inhibition at 10 µM (hr OpM; read-out: % inh/act @ 10 µM): 18%
- inhibition at 30 µM (hr OpM; read-out: % inh/act @ 30 µM): 19%
- EC50/IC50 (hr D2; hr D2): > 30 µM
- inhibition at 10 µM (hr D2; read-out: % inh/act @ 10 µM): 7%
- inhibition at 30 µM (hr D2; read-out: % inh/act @ 30 µM): 15%
- EC50/IC50 (hr Al1A ag; hr Al1A ag): > 30 µM
- inhibition at 10 µM (hr Al1A ag; read-out: % inh/act @ 10 µM): 0%
- inhibition at 30 µM (hr Al1A ag; read-out: % inh/act @ 30 µM): 1%
- MRT ([1]; in vivo, 0.3 mg/kg IV): 9.7 h
- bioavailability ([1]; in vivo, 0.3 mg/kg IV and 10 mg/kg PO): 27%
- clearance ([1]; in vivo, 0.3 mg/kg IV, fumarate salt): 0.9 mL/min/kg
- half-life ([1]; in vivo, 0.3 mg/kg IV, read-out: T1/2 IV (converted)): 9.7 h
- Vd ([1]; in vivo, 0.3 mg/kg IV, read-out: Vss): 0.5 L/kg
- DN AUC PO ([1]; 10 mg/kg PO, dose-normalized): 12 µM·h
- DN Cmax PO ([1]; 10 mg/kg PO, dose-normalized): 1000 nM
- EC50/IC50 (hr PDE4D; hr PDE4D): > 30 µM
- inhibition at 10 µM (hr PDE4D; read-out: % inh/act @ 10 µM): 35%
- inhibition at 30 µM (hr PDE4D; read-out: % inh/act @ 30 µM): 49%
- solubility kinetic [2]: 17 µM (≈ 7.54 µg/mL)
- EC50/IC50 (h AdT; h AdT): > 30 µM
- inhibition at 10 µM (h AdT; read-out: % inh/act @ 10 µM): 28%
- inhibition at 30 µM (h AdT; read-out: % inh/act @ 30 µM): 42%
- EC50/IC50 (hr Beta2 ag; hr Beta2 ag): > 30 µM
- inhibition at 10 µM (hr Beta2 ag; read-out: % inh/act @ 10 µM): 1%
- inhibition at 30 µM (hr Beta2 ag; read-out: % inh/act @ 30 µM): 7%
- EC50/IC50 (hr Ad2A; hr Ad2A): > 30 µM
- inhibition at 10 µM (hr Ad2A; read-out: % inh/act @ 10 µM): 26%
- inhibition at 30 µM (hr Ad2A; read-out: % inh/act @ 30 µM): 52%
- EC50/IC50 (hr OpD; hr OpD): > 30 µM
- inhibition at 10 µM (hr OpD; read-out: % inh/act @ 10 µM): 22%
- inhibition at 30 µM (hr OpD; read-out: % inh/act @ 30 µM): 33%
- EC50/IC50 (hr Cav1.2): > 50 µM
- inhibition at 10 µM (Cav1.2): -3%
- inhibition at 30 µM (Cav1.2): -7%
- EC50/IC50 (hr D1 antag; hr D1 antag): > 30 µM
- inhibition at 10 µM (hr D1 antag; read-out: % inh/act @ 10 µM): -11%
- inhibition at 30 µM (hr D1 antag; read-out: % inh/act @ 30 µM): -5%
- fraction unbound [3]: 0.056
